Molecular target: T1, hAhR (Homo sapiens, UniProt P35869)
T1 construct: Stably integrated DRE-luciferase cell lines were generated by transducing the both cell lines with Cignal XRE luciferase reporter; endogenous in cells; host or cells: HEPG2 DRE-Luc cells (only the XRE luciferase reporter was transduced)
T1 sequence (P35869 11-848): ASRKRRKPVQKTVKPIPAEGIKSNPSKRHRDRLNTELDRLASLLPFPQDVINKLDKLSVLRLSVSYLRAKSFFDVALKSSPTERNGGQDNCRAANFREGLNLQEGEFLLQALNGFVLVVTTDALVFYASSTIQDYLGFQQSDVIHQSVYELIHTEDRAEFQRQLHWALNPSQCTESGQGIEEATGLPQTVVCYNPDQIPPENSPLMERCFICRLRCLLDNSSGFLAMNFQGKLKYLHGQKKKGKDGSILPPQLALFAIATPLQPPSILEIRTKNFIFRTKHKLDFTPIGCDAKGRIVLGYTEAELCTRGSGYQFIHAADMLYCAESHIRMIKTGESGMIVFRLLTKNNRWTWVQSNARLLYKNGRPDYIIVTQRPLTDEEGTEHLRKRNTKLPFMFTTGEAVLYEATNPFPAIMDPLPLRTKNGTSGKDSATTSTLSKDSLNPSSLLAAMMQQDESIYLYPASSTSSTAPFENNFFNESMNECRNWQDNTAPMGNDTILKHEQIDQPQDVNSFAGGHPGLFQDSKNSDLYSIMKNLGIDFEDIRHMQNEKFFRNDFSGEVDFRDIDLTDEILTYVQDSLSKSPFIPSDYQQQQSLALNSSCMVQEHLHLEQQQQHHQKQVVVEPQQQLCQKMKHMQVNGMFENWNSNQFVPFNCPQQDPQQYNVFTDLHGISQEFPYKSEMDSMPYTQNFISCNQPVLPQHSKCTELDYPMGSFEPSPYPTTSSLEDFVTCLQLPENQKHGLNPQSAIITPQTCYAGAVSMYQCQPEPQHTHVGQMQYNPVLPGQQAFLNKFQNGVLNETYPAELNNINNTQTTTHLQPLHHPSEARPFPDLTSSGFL
Assay: DRE-luciferase transcriptional reporter assay in HEPG2 DRE-Luc cells, TCDD-induced (antagonist mode)
Type: cell-based
Details: relative IC50, 3 nM TCDD, 24-hour incubation, firefly luciferase readout
Description: HEPG2 and HEPA1C1C7 cells were maintained in MEM and αMEM without nucleosides supplemented with 10% heat inactivated FBS respectively. Stably integrated DRE-luciferase cell lines were generated by transducing the both cell lines with Cignal XRE luciferase reporter (Qiagen) lentiviral particles according to the manufacturer protocol. For both cell lines stably integrated reporter cell lines were selected for the presence of 2 μg/mL puromycin. Following selection of stably integrated cell line pools, clonal cell lines were isolated by limiting dilution in 96-well plates. Transcriptional assays were performed by seeding 100 μL of cells at a density of 250,000 or 100,000 cells/mL, for HEPG2 and HEPA1C1C7 DRE-Luc cells respectively, into 96-well cell culture plates in OptiMEM supplemented with 0.5% heat inactivated FBS and allowed to attach overnight. For modulator assays, the compounds were added in a semi-log dose response using a D300e Digital Dispenser (Tecan) followed normalization with vehicle (DMSO). Immediately following compound addition 10 μL of 2,3,7,8-Tetrachlorodibenzo-p-dioxin (TCDD) was added to the cells to a final concentration of 3 nM or 0.3 nM for the HEPG2 and HEPA1C1C7 DRE-Luc cells respectively. Following 24-hour incubation, the medium was removed and the cells were lysed in 25 μL of Reporter Lysis Buffer (Promega). Firefly luciferase activity was measured immediately following the addition of 50 μL Luciferase Assay Reagent (Promega). The percent maximal activity for each point was determined using the following equation: (RLUsample−RLUvehicle−TCDD)/(RLUvehicle+TCDD RLUvehicle−TCDD)*100. The relative IC50, defined as the compound concentration required to reduce the TCDD induced response between the top and bottom plateau of each individual dose response curve by half, for each compound was determined using Prism 7 (GraphPad Software).

SMILES | IC50 [µM]
Cc1cc(N2CCOc3cnn(C)c3C2=O)c(F)cc1-c1ccc2nc(C(F)(F)F)ccc2n1 [compound 012, 7-(2-fluoro-5-methyl-4-(6-(trifluoromethyl)-1,5-naphthyridin-2-yl)phenyl)-1-methyl-6,7-dihydro-1H-pyrazolo[3,4-f][1,4]oxazepin-8 (5H)-one] | 0.5 to 1
Cc1cnn2c1C(=O)N(c1ccc(-c3ncc4cc(C(F)(F)F)ccc4n3)cc1F)CC2 [compound 013, 5-(2-fluoro-4-(6-(trifluoromethyl)quinazolin-2-yl)phenyl)-3-methyl-6,7-dihydropyrazolo[1,5-a]pyrazin-4 (5H)-one] | < 0.2
Cc1cc(-c2ncc3cc(C(F)(F)F)ccc3n2)ccc1N1Cc2cnn(C)c2C1=O [compound 014, 1-methyl-5-(2-methyl-4-(6-(trifluoromethyl)quinazolin-2-yl)phenyl)-4,5-dihydropyrrolo[3,4-c]pyrazol-6 (1H)-one] | < 0.2
Cc1cc(-c2ncc3cc(C(F)(F)F)ccc3n2)ccc1N1CCc2cnn(C)c2C1=O [compound 015, 1-methyl-6-(2-methyl-4-(6-(trifluoromethyl)quinazolin-2-yl)phenyl)-1,4,5,6-tetrahydro-7H-pyrazolo[3,4-c]pyridin-7-one] | < 0.2
Cc1cc(-c2ncc3nc(C(F)(F)F)ccc3n2)ccc1N1CCn2ncc(C)c2C1=O [compound 016, 3-methyl-5-(2-methyl-4-(6-(trifluoromethyl)pyrido[3,2-d]pyrimidin-2-yl)phenyl)-6,7-dihydropyrazolo[1,5-a]pyrazin-4 (5H)-one] | < 0.2
Cc1cc(-c2ccc3nc(C(F)(F)F)cc(C)c3n2)ccc1N1CCn2ncc(C)c2C1=O [compound 017, 3-methyl-5-(2-methyl-4-(8-methyl-6-(trifluoromethyl)-1,5-naphthyridin-2-yl)phenyl)-6,7-dihydropyrazolo[1,5-a]pyrazin-4 (5H)-one] | < 0.2
Cc1cc(N2CCn3ncc(C)c3C2=O)c(C)cc1-c1ccc2nc(C(F)(F)F)ccc2n1 [compound 018, 5-(2,5-dimethyl-4-(6-(trifluoromethyl)-1,5-naphthyridin-2-yl)phenyl)-3-methyl-6,7-dihydropyrazolo[1,5-a]pyrazin-4 (5H)-one] | 0.2 to 0.5
Cc1cc(N2CCn3ncc(C)c3C2=O)c(C)cc1-c1ncc2nc(C(F)(F)F)ccc2n1 [compound 019, 5-(2,5-dimethyl-4-(6-(trifluoromethyl)pyrido[3,2-d]pyrimidin-2-yl)phenyl)-3-methyl-6,7-dihydropyrazolo[1,5-a]pyrazin-4 (5H)-one] | < 0.2
Cc1cc(N2CCn3ncc(C)c3C2=O)c(C)cc1-c1ccc2nc(C(F)(F)F)cc(C)c2n1 [compound 020, 5-(2,5-dimethyl-4-(8-methyl-6-(trifluoromethyl)-1,5-naphthyridin-2-yl)phenyl)-3-methyl-6,7-dihydropyrazolo[1,5-a]pyrazin-4 (5H)-one] | < 0.2
Cc1cc(N2CCn3ncc(C)c3C2=O)c(F)cc1-c1ncc2nc(C(F)(F)F)ccc2n1 [compound 021, 5-(2-fluoro-5-methyl-4-(6-(trifluoromethyl)pyrido[3,2-d]pyrimidin-2-yl)phenyl)-3-methyl-6,7-dihydropyrazolo[1,5-a]pyrazin-4 (5H)-one] | < 0.2
Cc1cc(N2CCn3ncc(C)c3C2=O)c(F)cc1-c1ccc2nc(C(F)(F)F)cc(C)c2n1 [compound 022, 5-(2-fluoro-5-methyl-4-(8-methyl-6-(trifluoromethyl)-1,5-naphthyridin-2-yl)phenyl)-3-methyl-6,7-dihydropyrazolo[1,5-a]pyrazin-4 (5H)-one] | < 0.2
Cc1cc(N2CCn3ncc(C)c3C2=O)c(C)cc1-c1ccc2cc(C(F)(F)F)ccc2n1 [compound 023, 5-(2,5-dimethyl-4-(6-(trifluoromethyl)quinolin-2-yl)phenyl)-3-methyl-6,7-dihydropyrazolo[1,5-a]pyrazin-4 (5H)-one] | 1 to 10
Cc1cc(N2CCn3ncc(C)c3C2=O)c(F)cc1-c1ccc2cc(C(F)(F)F)ccc2n1 [compound 024, 5-(2-fluoro-5-methyl-4-(6-(trifluoromethyl)quinolin-2-yl)phenyl)-3-methyl-6,7-dihydropyrazolo[1,5-a]pyrazin-4 (5H)-one] | < 0.2
Cc1cc(N2CCn3ncc(C)c3C2=O)c(F)cc1-c1ncc2cc(C(F)(F)F)ccc2n1 [compound 025, 5-(2-fluoro-5-methyl-4-(6-(trifluoromethyl)quinazolin-2-yl)phenyl)-3-methyl-6,7-dihydropyrazolo[1,5-a]pyrazin-4 (5H)-one] | < 0.2
Cc1cc(N2CCn3ncc(C)c3C2=O)c(F)cc1-c1ncc2cc(C(F)(F)F)cc(C)c2n1 [compound 026, 5-(2-fluoro-5-methyl-4-(8-methyl-6-(trifluoromethyl)quinazolin-2-yl)phenyl)-3-methyl-6,7-dihydropyrazolo[1,5-a]pyrazin-4 (5H)-one] | < 0.2
Cc1cc(-c2ccc3nc(C(F)(F)F)ccc3n2)ccc1N1CCc2cnn(C)c2C1=O [compound 027, 1-methyl-6-(2-methyl-4-(6-(trifluoromethyl)-1,5-naphthyridin-2-yl)phenyl)-1,4,5,6-tetrahydro-7H-pyrazolo[3,4-c]pyridin-7-one] | < 0.2
Cc1cc(-c2ccc3nc(C(F)(F)F)cc(C)c3n2)ccc1N1CCc2cnn(C)c2C1=O [compound 028, 1-methyl-6-(2-methyl-4-(8-methyl-6-(trifluoromethyl)-1,5-naphthyridin-2-yl)phenyl)-1,4,5,6-tetrahydro-7H-pyrazolo[3,4-c]pyridin-7-one] | < 0.2
Cc1cc(-c2ncc3cc(C(F)(F)F)ccc3n2)ccc1N1CCOc2cnn(C)c2C1=O [compound 029, 1-methyl-7-(2-methyl-4-(6-(trifluoromethyl)quinazolin-2-yl)phenyl)-6,7-dihydro-1H-pyrazolo[3,4-f][1,4]oxazepin-8 (5H)-one] | < 0.2
Cc1cc(-c2ccc3nc(C(F)(F)F)ccc3n2)ccc1N1CCOc2cnn(C)c2C1=O [compound 030, 1-methyl-7-(2-methyl-4-(6-(trifluoromethyl)-1,5-naphthyridin-2-yl)phenyl)-6,7-dihydro-1H-pyrazolo[3,4-f][1,4]oxazepin-8 (5H)-one] | < 0.2
Cc1cc(-c2ccc3nc(C(F)(F)F)cc(C)c3n2)ccc1N1CCOc2cnn(C)c2C1=O [compound 031, 1-methyl-7-(2-methyl-4-(8-methyl-6-(trifluoromethyl)-1,5-naphthyridin-2-yl)phenyl)-6,7-dihydro-1H-pyrazolo[3,4-f][1,4]oxazepin-8 (5H)-one] | < 0.2
Cc1cc(N2CCOc3cnn(C)c3C2=O)c(C)cc1-c1ccc2nc(C(F)(F)F)ccc2n1 [compound 032, 7-(2,5-dimethyl-4-(6-(trifluoromethyl)-1,5-naphthyridin-2-yl)phenyl)-1-methyl-6,7-dihydro-1H-pyrazolo[3,4-f][1,4]oxazepin-8 (5H)-one] | 1 to 10
Cc1cc(-c2ncc3cc(C(F)(F)F)ccc3n2)ccc1N1CCOc2cn[nH]c2C1=O [compound 033] | < 0.2
Cc1cc(-c2ncc3cc(C(F)(F)F)ccc3n2)ccc1N1CCOc2cn(CC#N)nc2C1=O [compound 035, 2-(7-(2-methyl-4-(6-(trifluoromethyl)quinazolin-2-yl)phenyl)-8-oxo-5,6,7,8-tetrahydro-2H-pyrazolo[3,4-f][1,4]oxazepin-2-yl)acetonitrile] | < 0.2
